Key:
[1] = test system: murine primary monocytic cells; test: Nitric Oxide production in primary monocytic cells exposed to LPS; format: cell-based; settings: activated murine monocytic cells, LPS 10 μg/mL, cell culture supernatant, dose effect relationship
Description: LPS exposure increased NO production at a dose of 10 μg/mL after 24 exposure in cell culture supernatant.

[2] = test system: CLP mice; test: Fear conditioning test after sepsis; format: in vivo
Description: (§1) Comportemental tests: Every comportemental tests were started 15 days after sepsis induction. The experimentator was blinded to the experimental group.
Fear conditioning. Mice underwent the classical fear conditioning test with a cued stimulus (auditory tone) and an uncued stimulus (electric shock). During two consecutive conditioning trials, 2 minutes resting followed by a 48s tone ([…] tone, 60 db) and 5 electrical footshocks of 2 joules during 2 seconds. Twenty four hours after conditioning, mice underwent the fear memory recall after exposition to a contextual stimulus (shock cage in the same configuration without auditory tone) or an auditory stimulus (Auditory tone in a different cage with a vanilla artificial odor). Freezing was evaluated for 2 seconds every 8 seconds and was defined as the absence of movement of the mouse with tail erection. Percentage of 10 seconds period freezing was reported to the total amount of freezing.

[3] = test system: CLP mice; test: Open field test after sepsis; format: in vivo; settings: septic mice, 10 days after sepsis, vs saline
Description: […] The experimentator was blinded to the experimental group.
Open Field Mice were placed 45 minutes before being held in the experimental room. Single mice were then placed in a squared 40 cm box in an experimental room and captured with a camera during 10 minutes. Mice were tracked using Ethovision XT and their tail, nose and barycenter was marked. The total length walked, the ratio of time spent moving/non moving, the maximum velocity and the mean distance from barycenter to arena's center were recorded. Datas are presented as Mean±SEM.
Datas are presented as mean±SEM. Sepsis presented a persisting effect on locomotor functions:sepsis lowered the distance traveled (E, p<0.05), increased the time spent not moving (F, p<0.05) and the mean distance to center (G, p<0.05) compared to control mice.

[4] = test system: microglial cells; test: Morphological analysis of microglial cells (Iba-1 staining) after sepsis; format: in vivo, mice
Description: Immunohistochemistry: Mice were perfused through left ventricule with paraformaldehyde 4% and the collected brains with small forceps. Brain were fixed overnight with PFA 4% and then cut in 100 μm sagittal slices with a vibratome VT1200S (Leica, Germany). Ionized calcium binding adaptor type 1 immunohistochemistry. Brain sections were washed with PBS and aspecific binding sites were saturated with a bovine serum albumine 3% in PBS solution for 4 hours. Then primary antibody (Rabbit, Wako, 40 ng/μl) was applied for 24 hours at 4° C. under constant agitation. Cyanine 3 secondary antibody (Donkey anti-Rabbit) and Hoechst 33342 (1/4000) was then applied overnight at 4° C. with constant agitation.
Imaging of samples was realized in a medium throughput spinning disk confocal microscope (CV1000) on 5×5 mozaics reconstructed with an overlap of 50% to avoid signal intensity lowering on the edge of tiles. Stitching was realized using a homemade macro with the Grid/collection plugin for Fiji channel by channel and then manually realligned if necessary. Automated analysis of microglial cell was realized on Iba1 staining. Automatic local contrast thresholding using Phanshalkar algorithm with a radius of 2 μm was performed for microglia channel, and with a radius of 12 μm for nuclei channel. Microglial cells were identified using a fixed empirical threshold for percentage of perinuclear area stained by Iba-1 using thresholded image. Only individual microglial cells obtained after segmentation with a tridimensionnal watershed algorithm were furthered considered for analysis. Morphometric study of microglial cells were performed using mcib3d plugin for FIJI. Concentric envelopes were computed starting 1 μm after nuclear envelope to analyze the number of microglial process crossing this sphere and reproduce a conformational tridimensional analysis on microglial cells.
Individual and summarized data were then analyzed in R statistics. Area under the curve of number of microglial processes. When covariant variables were identified, the most relevant was considered.
FIG. 3 (G, H, I). […]

[5] = test system: CLP mice; test: Novel object location/recognition tests after sepsis; format: in vivo; settings: septic mice, treated or not
Description: as §1
Novel Object Recognition Test: Tests comprise three phases: habituation, familiarization and test phase. During the first 20 minutes animals were placed in a transparent arena under a 100 lux light that had three compartments separated with one-holed plexiglass walls. Two objects were used (a plastic power plug and a brass bolt). During the next 10 minutes two similar objects (A,A) were placed in the lateral compartments. We considered that mice were exploring the objects when they were climbing or explore it with their nose. Immediately after mice were replaced in the center of arena and two new objects (A,B) were placed in the compartments. The ratio of time spent exploring objects A and ratio of time exploring object AB were compared.
Figures J-M. Morris water Maze test (MWM) and Novel Object Location/Recognition tests.

[6] = test system: pro- and anti-inflammatory cytokine levels in brain parenchyma; test: Cytokine multiplex in brain parenchyma after sepsis; format: in vivo, mice; settings: 24 hours after sepsis induction
Description: Cytokine multiplex: Brain samples were weighed and unfrosted in 100 μl of extraction buffer (PBS 1×, complete protease inhibitor, sigma-aldrich, triton 0.1%) processed in 2 ml Lysing Matrix A tubes with FastPrep-24 (MP biomedicals, Germany). Tubes were centrifuged at 20000 g at 4° C. and supernatant was collected and protein concentration was determined with light absorbance at 280 nm using a Nanodrop Lite Spectrophotometer (Thermo Scientific). […] Cytokines were measured using a Bio-Plex System and Mouse Cytokine Standard 23-Plex Group 1 kit following manufacturer's recommendations. Raw datas were analyzed by dividing the concentration of cytokine with protein concentration in lyzate and weight of sample measured on precision balance. Then every cytokine concentrations are presented as a ratio compared to the untreated sepsis group.

[7] = cited from earlier work
[8] = test system: primary murine microglial cells; test: Pro- and anti-inflammatory marker transcription in primary microglial cells exposed to LPS; format: cell-based, C57/B16 mice; settings: primary microglial cells after LPS exposure
Excerpt: NO: 53) and anti-sense primer:[…] NO: 54). […] ID NO: 55) and anti-sense primer […] NO: 56). […] NO: 57) and anti-sense primer:[…] NO: 58).

[9] = test system: CLP mice; test: Elevated plus maze test after sepsis; format: in vivo; settings: levetiracetam vs placebo treated CLP mice
Description: Elevated plus maze test: Mice home cage was placed in the experimental room 45 minutes prior any handling. Mice were placed in cross shaped 40 cm maze consisting in 2 open arms without walls and 2 closed arms with 30 cm opaque walls. Mice were tracked with ethovision XT during 5 minutes trials. The maximum velocity, total distance walked, number of entries in an open arm, and amount of time spent in an opened arm or in a closed arm were recorded. Datas are presented as Mean±SEM.
FIG. 2: Innate anxiety behavior and depressive phenotype was investigated with the elevated plus maze and splash test.

## CC[C@@H](C(N)=O)N1CCCC1=O (single isomer, unassigned) [levetiracetam]
[1]
  production of Nitric Oxide: reduced
[2]; between groups
  motor response to electric shock during conditioning period: did not differ
[2]; levetiracetam treated vs placebo treated CLP mice, p=0,024
  auditory freezing time: lower
[3]
  open field distance traveled (sepsis-associated lowering): did not influenced
  open field time spent not moving: did not influenced
[3]; p=0.043 Mann-Whitney
  open field mean distance to center: decreased
[4]; 4 main components of 107 morphological criteria, septic mice
  principal components of microglial morphology: different
[4]; 6 hours after sepsis, CeA and B1A
  microglial cell morphological changes: decreased
[4]; 15 days after sepsis
  number of microglial cell processes: increased dramatically
[5]
  time on novel vs familiar object: same amount of time
[6]; sepsis group treated
  TNF alpha in brain parenchyma (multiplex): could not be detected
[6]; vs septic mice receiving saline
  IL4 concentration in brain parenchyma (multiplex): increased
[7]; acetonitrile
  solubility in acetonitrile: 5.7 g/100 mL
[7]; chloroform
  solubility in chloroform: 65.3 g/100 mL
[7]; ethanol
  solubility in ethanol: 16.5 g/100 mL
[7]; methanol
  solubility in methanol: 53.6 g/100 mL
[7]; n-hexane
  solubility in n-hexane: practically insoluble
[7]; water
  solubility in water: 104.0 g/100 mL
[8]
  expression of anti and proinflammatory markers: modified
[9]
  innate anxiety (elevated plus maze): No difference
